Experimental data: US9522888B2, “Substituted bicyclic compounds” (BRISTOL-MYERS SQUIBB COMPANY, priority 2014, dated 2016)

Assays:
[1] = biological target: S1P1 (membranes prepared from S1P1/CHO cells) (Homo sapiens (Human), UniProt P21453); assay: Receptor [35S] GTPγS binding assay (S1P1 GTPγS); format: biochemical; conditions: phosphate examples; read-out: S1P1 GTPγS
Protocol: (§1) Receptor [^35S] GTPγS Binding Assays: (S1P1 GTPγS/S1P3 GTPγS)
Compounds were loaded in a 384 Falcon v-bottom plate (0.5 μl/well in a 11 point, 3-fold dilution). Membranes prepared from S1P1/CHO cells or EDG3-Gal5-bla HEK293T cells (EDG3 equivalent S1P3) were added to the compound plate (40 μl/well, final protein 3 μg/well) with MULTIDROP®. [^35S] GTP (1250 Ci/mmol, Perkin Elmer) was diluted in assay buffer: 20 mM HEPES, pH7.5, 10 mM MgCl2, 150 mM NaCl, 1 mM EGTA (ethylene glycol tetraacetic acid), 1 mM DTT (Dithiothreitol), 10 μM GDP, 0.1% fatty acid free BSA, and 10 μg/ml Saponin to 0.4 nM. 40 μl of the [^35S] GTP solution was added to the compound plate with a final concentration of 0.2 nM. The reaction was kept at room temperature for 45 min. At the end of incubation, all the mixtures in the compound plate were transferred to Millipore 384-well FB filter plates via the VELOCITY11® Vprep liquid handler. The filter plate was washed with water 4 times by using the manifold Embla plate washer and dried at 60° C. for 45 min. MicroScint 20 scintillation fluid (30 μl) was added to each well for counting on the Packard TOPCOUNT®. […]

[2] = biological target: hS1P1/CHO cells (Homo sapiens (Human), UniProt P21453); assay: hS1P1 ERK phosphorylation (S1P1 pERK); format: cell-based; conditions: phosphate examples
Protocol: hS1P1 ERK Phosphorylation (S1P1 pERK)
hS1P1/CHO cells were plated into BD Amine 384-well plates the day before the assay. On the day of the assay, growth medium was removed and replaced with serum-free medium (Ham's F-12 Invitrogen) and incubated for 2 hours. Test compounds pre-diluted in HBSS (Gibco)/20 mM HEPES (Gibco) were transferred to the cell plates and incubated for 7 minutes at 37° C. Cells were lysed in lysis buffer (Perkin Elmer) and phospho-ERK was measured using the SureFire pERK kit (Perkin Elmer) as described by the manufacturer. Data was plotted as percentage activation of the test compound relative to the efficacy of 10 μM S1P.

[3] = biological target: S1P3 (membranes prepared from EDG3-Gal5-bla HEK293T cells) (Homo sapiens (Human), UniProt Q99500); assay: Receptor [35S] GTPγS binding assay (S1P3 GTPγS); format: biochemical; conditions: phosphate examples; read-out: S1P3 GTPγS
Protocol: as §1
Compounds were loaded in a 384 Falcon v-bottom plate (0.5 μl/well in a 11 point, 3-fold dilution). Membranes prepared from S1P1/CHO cells or EDG3-Gal5-bla HEK293T cells (EDG3 equivalent S1P3) were added to the compound plate (40 μl/well, final protein 3 μg/well) with MULTIDROP®. [^35S] GTP (1250 Ci/mmol, Perkin Elmer) was diluted in assay buffer: 20 mM HEPES, pH7.5, 10 mM MgCl2, 150 mM NaCl, 1 mM EGTA (ethylene glycol tetraacetic acid), 1 mM DTT (Dithiothreitol), 10 μM GDP, 0.1% fatty acid free BSA, and 10 μg/ml Saponin to 0.4 nM. 40 μl of the [^35S] GTP solution was added to the compound plate with a final concentration of 0.2 nM. The reaction was kept at room temperature for 45 min. At the end of incubation, all the mixtures in the compound plate were transferred to Millipore 384-well FB filter plates via the VELOCITY11® Vprep liquid handler. The filter plate was washed with water 4 times by using the manifold Embla plate washer and dried at 60° C. for 45 min. MicroScint 20 scintillation fluid (30 μl) was added to each well for counting on the Packard TOPCOUNT®.
A smaller value for GTPγS S1P1 EC50 value indicated greater activity for the compound in the GTPγS S1P1 binding assay. A larger value for the GTPγS S1P3 EC50 value indicated less activity in the GTPγS S1P3 binding assay. […] Thus the compounds of the present invention may be used in treating, preventing, or curing various S1P1 receptor-related conditions while reducing or minimizing the side effects due to S1P3 activity. The selectivity of the compounds of the present invention indicate their potential use in treating, preventing, or curing autoimmune and inflammatory diseases such as multiple sclerosis, rheumatoid arthritis, inflammatory bowel disease, lupus, psoriasis, or vascular diseases, while reducing or minimizing possible side effects due to S1P3 activity. Other potential uses of the compounds of the present invention include minimizing or reducing rejection of transplanted organs, while reducing or minimizing side effects due to S1P3 activity.

[4] = biological target: human S1P1 (Homo sapiens (Human), UniProt P21453); assay: S1P1 binding assay (33P-S1P radioligand competition, CHO cell membranes); conditions: phosphate examples; read-out: S1P1 Binding
Protocol: Membranes were prepared from CHO cells expressing human S1P1. Cells pellets (1×10^9 cells/pellet) were suspended in buffer containing 20 mM HEPES (4-(2-hydroxyethyl)-1-piperazineethanesulfonic acid), pH 7.5, 50 mM NaCl, 2 mM EDTA (Ethylenediaminetetraacetic acid) and Protease Inhibitor cocktail (Roche), and disrupted on ice using the Polytron homogenizer. The homogenate was centrifuged at 20,000 rpm (48,000 g) and the supernatant was discarded. The membrane pellets were resuspended in buffer containing 50 mM HEPES, pH 7.5, 100 mM NaCl, 1 mM MgCl2, 2 mM EDTA and stored in aliquots at −80° C. after protein concentration determination.

Sequence of S1P3 (membranes prepared from EDG3-Gal5-bla HEK293T cells) (Q99500 whole entry): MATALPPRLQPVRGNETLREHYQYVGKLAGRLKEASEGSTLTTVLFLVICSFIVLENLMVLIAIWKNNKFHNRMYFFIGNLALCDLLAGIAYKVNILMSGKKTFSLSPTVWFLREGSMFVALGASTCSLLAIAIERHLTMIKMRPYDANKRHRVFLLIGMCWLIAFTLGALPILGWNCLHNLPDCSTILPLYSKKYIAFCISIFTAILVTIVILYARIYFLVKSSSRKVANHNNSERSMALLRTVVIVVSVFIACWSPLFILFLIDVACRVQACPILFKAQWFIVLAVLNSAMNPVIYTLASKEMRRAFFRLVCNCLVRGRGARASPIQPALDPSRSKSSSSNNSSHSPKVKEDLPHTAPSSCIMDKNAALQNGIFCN
Sequence of hS1P1/CHO cells (P21453 whole entry): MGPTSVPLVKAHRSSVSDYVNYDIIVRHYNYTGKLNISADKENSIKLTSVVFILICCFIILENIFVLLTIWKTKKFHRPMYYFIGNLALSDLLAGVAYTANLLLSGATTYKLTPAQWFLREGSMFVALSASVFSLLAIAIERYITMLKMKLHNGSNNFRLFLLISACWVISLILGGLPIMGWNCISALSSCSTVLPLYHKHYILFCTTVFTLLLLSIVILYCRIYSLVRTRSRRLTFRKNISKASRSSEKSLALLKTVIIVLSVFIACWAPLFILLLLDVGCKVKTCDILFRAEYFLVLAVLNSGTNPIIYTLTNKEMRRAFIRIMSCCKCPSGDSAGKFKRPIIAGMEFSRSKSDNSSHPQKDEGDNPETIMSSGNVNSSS
Sequence of human S1P1 (P21453 whole entry): as above
Sequence of S1P1 (membranes prepared from S1P1/CHO cells) (P21453 whole entry): as above

Compound	EC50 [1] [nM]	EC50 [2] [nM]	EC50 [3] [nM]	IC50 [4] [nM]
NC1(COP(=O)(O)O)CC[C@H](c2ccc3c(c2)CC[C@@H](c2ccccc2)C3)C1 (single isomer, unassigned) [compound 570]	10 to 100	< 10	> 625	10 to 100
C=CCOCCO[C@@H]1CCc2cc(C3CCC(N)(COP(=O)(O)O)C3)ccc2C1 (single isomer, unassigned) [compound 579]	100 to 1000	10 to 100	> 625	100 to 1000
N[C@@]1(COP(=O)(O)O)CC[C@@H](c2ccc3c(c2)CC[C@H](OCCOc2ccccc2)C3)C1 (single isomer, unassigned) [compound 582]	10 to 100	< 10	> 625	< 10
N[C@@]1(COP(=O)(O)O)CC[C@@H](c2ccc3c(c2)CC[C@H](OCCOCc2cccs2)C3)C1 (single isomer, unassigned) [compound 589]	10 to 100	< 10	> 100	< 10
COc1ccc(CC[C@@H]2CCc3cc(C4CCC(N)(COP(=O)(O)O)C4)ccc3C2)cc1 (single isomer, unassigned) [compound 593]	10 to 100	10 to 100	> 625	< 10
COCCCCCC[C@H]1CCc2cc(C3CCC(N)(COP(=O)(O)O)C3)ccc2C1 (single isomer, unassigned) [compound 597]	< 10	10 to 100	> 625	< 10
COCCCCC[C@@H]1CCc2cc(C3CCC(N)(COP(=O)(O)O)C3)ccc2C1 (single isomer, unassigned) [compound 599]	< 10	< 10	> 625	< 10
C=CCOCCC[C@@H]1CCc2cc(C3CCC(N)(COP(=O)(O)O)C3)ccc2C1 (single isomer, unassigned) [compound 601]	100 to 1000	< 10	> 100	< 10
N[C@@]1(COP(=O)(O)O)CC[C@@H](c2ccc3c(c2)CC[C@H](CCc2ccc4ccccc4n2)C3)C1 (single isomer, unassigned) [compound 604]	100 to 1000	10 to 100	> 625	100 to 1000
N[C@@]1(COP(=O)(O)O)CC[C@@H](c2ccc3c(c2)CC[C@H](CCc2cccnc2)C3)C1 (single isomer, unassigned) [compound 606]	10 to 100	< 10	> 625	10 to 100
COc1cccc(F)c1CC[C@H]1CCc2cc([C@@H]3CC[C@@](N)(COP(=O)(O)O)C3)ccc2C1 (single isomer, unassigned) [compound 607]	100 to 1000	10 to 100	> 625	100 to 1000
COc1cc(CC[C@H]2CCc3cc([C@@H]4CC[C@@](N)(COP(=O)(O)O)C4)ccc3C2)ccc1F (single isomer, unassigned) [compound 608]	< 10	< 10	> 625	< 10
COc1ccc(F)c(CC[C@H]2CCc3cc([C@@H]4CC[C@@](N)(COP(=O)(O)O)C4)ccc3C2)c1 (single isomer, unassigned) [compound 609]	10 to 100	< 10	> 625	10 to 100
COC(C)CCCCC1CCc2cc([C@H]3CC[C@](N)(COP(=O)(O)O)C3)ccc2C1 (single isomer, unassigned) [compound 611]	< 10	< 10	> 625	< 10
CCCCCOC[C@@H]1COc2cc([C@H]3CC[C@](N)(COP(=O)(O)O)C3)ccc2O1 [Example 412, ((1R,3S)-1-amino-3-((R)-2-((pentyloxy)methyl)-2,3-dihydrobenzo[b][1,4]dioxin-6-yl)cyclopentyl)methyl dihydrogen phosphate]	< 10	< 10	> 625	< 10
Cn1cc(COC[C@@H]2CCc3cc([C@H]4CC[C@](N)(COP(=O)(O)O)C4)ccc3C2)cn1 [compound 471]	–	10 to 100	> 625	100 to 1000
N[C@]1(COP(=O)(O)O)CC[C@H](c2ccc3c(c2)CC[C@@H](COCc2ccsc2)C3)C1 [compound 473]	–	10 to 100	> 625	< 10
Cc1cc(COC[C@@H]2CCc3cc([C@H]4CC[C@](N)(COP(=O)(O)O)C4)ccc3C2)sc1C [compound 488]	10 to 100	< 10	–	< 10
CCCSC[C@H]1CCc2cc([C@H]3CC[C@](N)(COP(=O)(O)O)C3)ccc2C1 [compound 502]	10 to 100	< 10	–	< 10
N[C@]1(COP(=O)(O)O)CC[C@H](c2ccc3c(c2)CC[C@H](c2ccncc2)C3)C1 [compound 574]	–	10 to 100	> 625	100 to 1000
N[C@@]1(COP(=O)(O)O)CC[C@@H](c2ccc3c(c2)CC[C@@H](OCCOc2ccccc2)C3)C1 [compound 583]	< 10	< 10	> 100	–
N[C@@]1(COP(=O)(O)O)CCC(c2ccc3c(c2)CN(CCCc2ccccc2)C3=O)C1 (stereo partly drawn) [compound 613]	–	100 to 1000	> 625	1000 to 10000
CCCCNC(=O)OC1CCc2cc([C@H]3CC[C@@](N)(COP(=O)(O)O)C3)ccc2C1 (stereo partly drawn) [compound 625]	100 to 1000	10 to 100	> 625	–
CCCCN(C)C(=O)OC1CCc2cc([C@H]3CC[C@](N)(COP(=O)(O)O)C3)ccc2C1 (stereo partly drawn) [compound 628]	< 10	< 10	> 625	–
CCCCC1CCCC2(CCc3cc([C@H]4CC[C@](N)(COP(=O)(O)O)C4)ccc3C2)O1 (stereo partly drawn) [compound 630]	–	100 to 1000	> 625	< 10
N[C@]1(COP(=O)(O)O)CC[C@H](c2ccc3c(c2)CCC2(CCCCO2)C3)C1 (stereo partly drawn) [compound 634]	–	10 to 100	> 625	10 to 100
CCCC/C=C/C1=Cc2ccc([C@H]3CC[C@](N)(COP(=O)(O)O)C3)cc2CC1 [compound 647]	100 to 1000	10 to 100	> 625	–
CCCCC=C[C@H]1CCc2cc([C@H]3CC[C@](N)(COP(=O)(O)O)C3)ccc2C1 [compound 649]	100 to 1000	10 to 100	–	10 to 100
